# Test results reported in PMC9491098, “Discovery of novel drug-like antitubercular hits targeting the MEP pathway enzyme DXPS by strategic application of ligand-based virtual screening” (Chemical Science, 2022).
# “And” between values parts separate entries of the source, which are not always exact repeats. Identical values can stand only once. Like-named read-outs stand apart in the source and are kept apart here.
# Tests used:
# [1] = metabolic stability in human liver S9 fraction; details: pooled liver S9 fraction
# Procedure: For vitro assessment of metabolic stability, 10 µL of each compound (10 µM) was
# incubated with human pooled liver S9-fraction (1 mg/mL, Corning, Corning, NY, USA)
# in a master mix containing 2 mM NADP, 10 mM glucose-6-phosphate, 10 U/mL
# glucose-6-phosphate dehydrogenase, 1 mM UDPGA, 0.1 mM PAPS, 10 mM MgCl2.
# acetonitrile containing diphenhydramine as internal standard at 4 °C. The supernatant
# was used for LC-MS analysis and half life time t1/2 was calculated from decreasing
# concentrations/peak areas.
# LC conditions: samples were analyzed with an Ultimate 3000 HPLC (Thermo Fisher,
# Waltham, MA, USA) coupled to a TSQ Quantum Access Max triple quadrupole mass
# spectrometer (Thermo Fisher, Waltham, MA, USA) in SRM mode. Analysis was
# performed on a Nucleodur C18 Pyramid column (3 µm, 2x150 mm, Macherey-Nagel,
# Düren, Germany) with a flow of 0.6 mL/min and a water (0.1% formic acid) and
# acetonitrile (0.1% formic acid) eluent system. Gradient as follows: 10% acetonitrile for
# 1 min, 10–90% acetonitrile over 0.7 min, 90% acetonitrile for 1.8 min, equilibration at
# 10% acetonitrile for 1 min.
# MS conditions: calibration of mass spectrometer parameters was performed
# individually for each compound:
# M. tuberculosis strains = test: MIC against multiple M. tuberculosis strains, absolute concentration method on 7H10 agar; format: cell-based; details: Mycobacterium tuberculosis
# [2] = tested on: E. coli strain BL21 (DE3) pET22b-H6[…]; test: microbe, parasite or virus in culture; format: cell-based; details: Escherichia coli, Fig. 6B
# MtDXPS [3] = target: T1, MtDXPS (Mycobacterium tuberculosis, UniProt P9WNS3); test: microscale thermophoresis (MST) dissociation constant; format: binding; details: Fig. 4F
# Procedure: ETB + A <===> ETAB : Ka2 (Ka2 is the dissociation constant of pyruvate with […]
# ETA + B <===> ETAB : Kb2 (Kb2 is the dissociation constant of ThDP with DXPS) E + I <===> EI* : Ki* (Ki* is the Morrison inhibition constant of inhibitor with apoDXPS) ETAB ---> ET + P : kcat (kcat is the catalytic constant of DXPS) […]
# microscale thermophoresis (MST)
# MST measurements were performed on a Monolith NT.115 (NanoTemper
# Technologies GmbH, Germany) instrument using red-dye-NHS fluorescent labeling.
# Each purified MtDXPS sample was labeled with red-dye-NHS second generation dye, according to the supplied protocol. Measurements were performed in 100 m M Tris-HCl (pH 7.6) containing 0.05% Tween-20 and 5% DMSO in premium treated capillaries.
# The final concentration of each labeled protein in the assay was 100 n M. The inhibitors were titrated in 1:1 dilutions according to the supplier’s recommendations. All binding reactions were incubated at room temperature for 30 min before loading, and then pre-incubated for 5 min at room temperature after loading into the capillaries. Experiments were performed in duplicates, using 40% LED power, medium MST power, laser on time 20 s, and laser off time 3 s. Kds of the inhibitors were extracted from raw data at a 10–20 s on time according to the manufacturer’s instructions. A denaturation test was performed to exclude any nonspecific spectral interactions between the inhibitors […]
# The solutions were vortexed, and then the rest of the assay components was added in the following order: HEPES, pH = 8 (100 m M), bovine serum albumin (1 mg/mL), cysteine (2 mM), ThDP (0.325 μM), coenzyme-A (150 μM), TCEP (300 μM), pyruvate (150 μM) and MgCl2 (1 mM). […] Porcine PDH (final concentration of 0.01 U/ mL) was then added to initiate the reactions, which were monitored spectrophotometrically by measuring the […]
# [4] = tested on: E. coli strain BL21 (DE3) pQEYAEM; test: microbe, parasite or virus in culture; format: cell-based; details: Escherichia coli, Fig. 6A
# HEK293 = test: toxicity against human cell lines; format: cell-based; details: HEK293, 48 h, read-out: Toxicity Human cell lines EC50 (μM) HEK293
# A549 = test: toxicity against human cell lines; format: cell-based; details: A549, 48 h, read-out: Toxicity Human cell lines EC50 (μM) A549
# MtDXPS [5] = target: T1, MtDXPS; test: biochemical
# DrDXPS (WT) = DrDXPS (WT) (Deinococcus radiodurans, UniProt Q9RUB5); test: biochemical; format: biochemical; details: IC50, Fig. 5F/G, DrDXPS (WT)
# MtDXPS [6] = target: T1, MtDXPS
# zebrafish larvae = test: toxicity against zebrafish larvae; format: in vivo; details: Table S4, 10 larvae per condition
# MtDXPS [7] = target: T1, MtDXPS; test: biochemical; details: for mode of inhibition on MtDXPS: MOI study, comparison of IC50 under varied [ThDP], [PYR], [D-GAP]; for equilibration time (slow-binding): time-dependent progress curves, Fig. 4A, inhibitor 100 µM
# E. coli TolC = test: microbe, parasite or virus in culture; format: cell-based; details: Escherichia coli
# HepG2 = test: toxicity against human cell lines; format: cell-based; details: HepG2, 48 h, read-out: Toxicity Human cell lines EC50 (μM) HepG2
# [8] = read-out: Antitubercular activity Strain & MIC (μM) A
# [9] = read-out: Antitubercular activity Strain & MIC (μM) B
# [10] = read-out: Antitubercular activity Strain & MIC (μM) C
# [11] = read-out: Antitubercular activity Strain & MIC (μM) D
# [12] = read-out: Antitubercular activity Strain & MIC (μM) E
# [13] = read-out: Antitubercular activity Strain & MIC (μM) F
# [14] = susceptible, DR, MDR and XDR strains, read-out: antitubercular activity (MIC) against multiple M. tuberculosis strains
# [15] = [IPTG] 0.5 mM (MtDXPS overexpression)
# [16] = [IPTG] 0.5 mM (E. coli IspC overexpression)
# [17] = Morrison constant Ki* against MtDXPS, two-step tight-binding Morrison model, Dynafit, text and Fig. 4C–E
# [18] = [ThDP] 0.1 μM (1.6x Km), [PYR] 0.5 mM (2.4x), [D-GAP] […] (1.5x)
# [19] = [ThDP] 0.1 μM (1.6x Km), [PYR] […] (1.2x), [D-GAP] 0.5 mM (2.9x)
# [20] = [ThDP] 0.1 μM (1.6x Km), [PYR] […] (1.2x), [D-GAP] […] (1.5x)
# [21] = [ThDP] 0.2 μM (3.2x Km), [PYR] […] (1.2x), [D-GAP] […] (1.5x)
# T1 sequence (P9WNS3 whole entry, looked up): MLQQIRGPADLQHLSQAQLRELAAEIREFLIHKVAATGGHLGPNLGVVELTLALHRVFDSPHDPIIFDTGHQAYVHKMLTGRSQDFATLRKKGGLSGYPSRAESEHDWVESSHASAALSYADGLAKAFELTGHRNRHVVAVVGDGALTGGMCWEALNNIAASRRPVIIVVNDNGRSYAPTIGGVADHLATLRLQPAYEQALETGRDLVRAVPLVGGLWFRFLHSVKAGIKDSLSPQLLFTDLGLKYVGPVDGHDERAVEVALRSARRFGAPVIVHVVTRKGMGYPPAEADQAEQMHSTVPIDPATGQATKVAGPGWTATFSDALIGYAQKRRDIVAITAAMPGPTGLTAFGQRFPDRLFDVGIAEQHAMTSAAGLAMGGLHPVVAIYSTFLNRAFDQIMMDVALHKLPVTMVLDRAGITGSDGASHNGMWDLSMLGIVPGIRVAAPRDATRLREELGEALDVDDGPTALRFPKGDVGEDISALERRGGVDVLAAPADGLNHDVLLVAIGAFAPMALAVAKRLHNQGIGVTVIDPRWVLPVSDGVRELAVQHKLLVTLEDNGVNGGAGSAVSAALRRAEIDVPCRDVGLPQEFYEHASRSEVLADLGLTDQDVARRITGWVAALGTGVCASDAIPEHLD
# Sequence of DrDXPS (WT) (Q9RUB5 whole entry, looked up): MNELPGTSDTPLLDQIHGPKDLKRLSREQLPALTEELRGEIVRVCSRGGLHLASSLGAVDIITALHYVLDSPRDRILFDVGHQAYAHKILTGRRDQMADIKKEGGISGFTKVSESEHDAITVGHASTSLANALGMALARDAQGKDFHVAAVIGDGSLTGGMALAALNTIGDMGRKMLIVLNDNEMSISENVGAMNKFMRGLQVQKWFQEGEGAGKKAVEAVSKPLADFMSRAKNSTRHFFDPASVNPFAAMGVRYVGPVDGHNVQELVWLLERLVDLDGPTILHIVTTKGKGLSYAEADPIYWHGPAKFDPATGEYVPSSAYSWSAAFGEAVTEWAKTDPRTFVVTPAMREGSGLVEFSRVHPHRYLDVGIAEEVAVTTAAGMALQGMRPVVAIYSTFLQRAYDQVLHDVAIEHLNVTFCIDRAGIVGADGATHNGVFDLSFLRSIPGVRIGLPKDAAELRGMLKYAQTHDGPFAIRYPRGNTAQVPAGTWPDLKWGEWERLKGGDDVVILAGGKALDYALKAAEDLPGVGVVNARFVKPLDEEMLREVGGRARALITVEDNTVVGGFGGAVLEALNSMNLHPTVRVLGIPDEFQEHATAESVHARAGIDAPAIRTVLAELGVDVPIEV
smiles,measurement,setting,value
ON=C(Cc1ccc(Cl)cc1)c1ccc(O)cc1O [Compound 9],half-life at 10 µM,[1],20 min
same,MIC,M. tuberculosis strains; [8],10 µM
same,MIC,M. tuberculosis strains; [9],10 µM
same,MIC,M. tuberculosis strains; [10],10 µM
same,MIC,M. tuberculosis strains; [11],10 µM
same,MIC,M. tuberculosis strains; [12],10 µM
same,MIC,M. tuberculosis strains; [13],5 to 10 µM
same,MIC,M. tuberculosis strains; [14],5 to 10 µM
same,MIC,[2]; [IPTG] 0 mM,15 ± 1 µM
same,MIC,[2]; [15],> 200 µM
same,Kd,MtDXPS [3],0.221 µM and 0.2 µM
same,MIC,[4]; [IPTG] 0 mM,12 ± 3 µM
same,MIC,[4]; [16],10 ± 1 µM
same,EC50,HEK293,> 50 µM
same,EC50,A549,> 50 µM
same,Ki,"MtDXPS [5]; K i* (μM), Table 1B, oxime derivatives, MtDXPS",0.3 ± 0.02 µM
same,Ki,MtDXPS [5]; [17],0.271 µM and 0.2 to 0.3 µM
same,IC50,DrDXPS (WT); [18],59 ± 10 µM
same,IC50,DrDXPS (WT); [19],70 ± 11 µM
same,IC50,DrDXPS (WT); [20],33 ± 4 µM
same,IC50,DrDXPS (WT); [21],54 ± 7 µM
same,hit validation (false-positive check),MtDXPS [6],true inhibitors
same,number of living zebrafish larvae,"zebrafish larvae; 2 µM, 24 h (2 dpf)",10
same,number of living zebrafish larvae,"zebrafish larvae; 2 µM, 48 h (3 dpf)",10
same,number of living zebrafish larvae,"zebrafish larvae; 2 µM, 72 h (4 dpf)",10
same,number of living zebrafish larvae,"zebrafish larvae; 2 µM, 96 h (5 dpf)",10
same,number of living zebrafish larvae,"zebrafish larvae; 10 µM, 24 h (2 dpf)",10
same,number of living zebrafish larvae,"zebrafish larvae; 10 µM, 48 h (3 dpf)",10
same,number of living zebrafish larvae,"zebrafish larvae; 10 µM, 72 h (4 dpf)",10
same,number of living zebrafish larvae,"zebrafish larvae; 10 µM, 96 h (5 dpf)",10
same,number of living zebrafish larvae,"zebrafish larvae; 30 µM, 24 h (2 dpf)",10
same,number of living zebrafish larvae,"zebrafish larvae; 30 µM, 48 h (3 dpf)",10
same,number of living zebrafish larvae,"zebrafish larvae; 30 µM, 72 h (4 dpf)",10
same,number of living zebrafish larvae,"zebrafish larvae; 30 µM, 96 h (5 dpf)",10
same,number of living zebrafish larvae,"zebrafish larvae; 100 µM, 24 h (2 dpf)",5
same,number of living zebrafish larvae,"zebrafish larvae; 100 µM, 48 h (3 dpf)",2
same,number of living zebrafish larvae,"zebrafish larvae; 100 µM, 72 h (4 dpf)",0
same,number of living zebrafish larvae,"zebrafish larvae; 100 µM, 96 h (5 dpf)",0
same,IC50,MtDXPS [7]; IC50 (μM),44 ± 8 µM
same,IC50,MtDXPS [7]; IC50 against MtDXPS,140 ± 12 µM
same,IC50,MtDXPS [7]; IC50 against MtDXPS (MOI study),17 µM and 35 µM and 58 µM and 121 µM
same,mode of inhibition on MtDXPS,MtDXPS [7],competitive with ThDP and both substrates
same,equilibration time (slow-binding),MtDXPS [7],~100 s
same,MIC,E. coli TolC,21.9 ± 1.3 µM
same,EC50,HepG2,> 50 µM
Cc1nc(N)sc1-c1csc(Nc2ccc(C(F)(F)F)cc2)n1 [Compound 10],half-life at 10 µM,[1],> 60 min
same,MIC,M. tuberculosis strains; [8],> 10 µM
same,MIC,M. tuberculosis strains; [9],5 µM
same,MIC,M. tuberculosis strains; [10],5 µM
same,MIC,M. tuberculosis strains; [11],10 µM
same,MIC,M. tuberculosis strains; [12],5 to 10 µM
same,MIC,M. tuberculosis strains; [13],5 to 10 µM
same,MIC,M. tuberculosis strains; [14],5 to 10 µM
same,MIC,[2]; [IPTG] 0 mM,13 ± 1 µM
same,MIC,[2]; [15],35 ± 3 µM
same,Kd,MtDXPS [3],0.206 µM and 0.2 µM
same,MIC,[4]; [IPTG] 0 mM,15 ± 3 µM
same,MIC,[4]; [16],17 ± 2 µM
same,EC50,HEK293,25 to 50 µM
same,EC50,A549,> 50 µM
same,Ki,"MtDXPS [5]; K i* (μM), Table 1C, aminothiazole derivatives, MtDXPS",0.2 ± 0.02 µM
same,Ki,MtDXPS [5]; [17],0.212 µM and 0.2 to 0.3 µM
same,IC50,DrDXPS (WT); [18],108 ± 20 µM
same,IC50,DrDXPS (WT); [19],132 ± 22 µM
same,IC50,DrDXPS (WT); [20],60 ± 11 µM
same,IC50,DrDXPS (WT); [21],81 ± 12 µM
same,hit validation (false-positive check),MtDXPS [6],true inhibitors
same,number of living zebrafish larvae,"zebrafish larvae; 2 µM, 24 h (2 dpf)",10
same,number of living zebrafish larvae,"zebrafish larvae; 2 µM, 48 h (3 dpf)",10
same,number of living zebrafish larvae,"zebrafish larvae; 2 µM, 72 h (4 dpf)",10
same,number of living zebrafish larvae,"zebrafish larvae; 2 µM, 96 h (5 dpf)",10
same,number of living zebrafish larvae,"zebrafish larvae; 10 µM, 24 h (2 dpf)",10
same,number of living zebrafish larvae,"zebrafish larvae; 10 µM, 48 h (3 dpf)",10
same,number of living zebrafish larvae,"zebrafish larvae; 10 µM, 72 h (4 dpf)",10
same,number of living zebrafish larvae,"zebrafish larvae; 10 µM, 96 h (5 dpf)",10
same,number of living zebrafish larvae,"zebrafish larvae; 30 µM, 24 h (2 dpf)",2
same,number of living zebrafish larvae,"zebrafish larvae; 30 µM, 48 h (3 dpf)",0
same,number of living zebrafish larvae,"zebrafish larvae; 30 µM, 72 h (4 dpf)",0
same,number of living zebrafish larvae,"zebrafish larvae; 30 µM, 96 h (5 dpf)",0
same,number of living zebrafish larvae,"zebrafish larvae; 100 µM, 24 h (2 dpf)",0
same,number of living zebrafish larvae,"zebrafish larvae; 100 µM, 48 h (3 dpf)",0
same,number of living zebrafish larvae,"zebrafish larvae; 100 µM, 72 h (4 dpf)",0
same,number of living zebrafish larvae,"zebrafish larvae; 100 µM, 96 h (5 dpf)",0
same,IC50,MtDXPS [7]; IC50 (μM),32 ± 3 µM
same,IC50,MtDXPS [7]; IC50 against MtDXPS,118 ± 10 µM
same,mode of inhibition on MtDXPS,MtDXPS [7],competitive with ThDP and both substrates
same,equilibration time (slow-binding),MtDXPS [7],~100 s
same,MIC,E. coli TolC,22.2 ± 3.1 µM
same,EC50,HepG2,> 50 µM
